# Assay results as given in PubChem BioAssay AID1259407 (Chemical Carcinogenesis Research Information System (CCRIS), 2018).
# Activity calls are given as the source filed them. How the calls were made is not given here.
# System: CCRIS mutagenicity, Ames/micronucleus/aberration tests
# Assay: CCRIS mutagenicity studies
smiles,measurement,setting,value
CC(=O)CC(C)C,mutagenic call,"Test System: AMES SALMONELLA TYPHIMURIUM, Strain/Indicator: TA97, Metabolic Activation: HAMSTER, LIVER, S-9, AROCLOR 1254 (10 OR 30%), Method: PREINCUBATION",inactive; negative
same,mutagenic call,"Test System: AMES SALMONELLA TYPHIMURIUM, Strain/Indicator: TA97, Metabolic Activation: NONE, Method: PREINCUBATION",inactive; negative
same,mutagenic call,"Test System: AMES SALMONELLA TYPHIMURIUM, Strain/Indicator: TA97, Metabolic Activation: RAT, LIVER, S-9, AROCLOR 1254 (10 OR 30%), Method: PREINCUBATION",inactive; negative
same,mutagenic call,"Test System: AMES SALMONELLA TYPHIMURIUM, Strain/Indicator: TA98, Metabolic Activation: HAMSTER, LIVER, S-9, AROCLOR 1254 (10%), Method: PREINCUBATION",inactive; negative
same,mutagenic call,"Test System: AMES SALMONELLA TYPHIMURIUM, Strain/Indicator: TA98, Metabolic Activation: HAMSTER, LIVER, S-9, AROCLOR 1254 (30%), Method: PREINCUBATION",inactive; negative
same,mutagenic call,"Test System: AMES SALMONELLA TYPHIMURIUM, Strain/Indicator: TA98, Metabolic Activation: NONE, Method: PREINCUBATION",inactive; negative
same,mutagenic call,"Test System: AMES SALMONELLA TYPHIMURIUM, Strain/Indicator: TA98, Metabolic Activation: RAT, LIVER, S-9, AROCLOR 1254 (10%), Method: PREINCUBATION",inactive; negative
same,mutagenic call,"Test System: AMES SALMONELLA TYPHIMURIUM, Strain/Indicator: TA98, Metabolic Activation: RAT, LIVER, S-9, AROCLOR 1254 (30%), Method: PREINCUBATION",inactive; negative
same,mutagenic call,"Test System: AMES SALMONELLA TYPHIMURIUM, Strain/Indicator: TA98, Metabolic Activation: RAT, LIVER, S-9, AROCLOR 1254, Method: PREINCUBATION",inactive; negative
same,mutagenic call,"Test System: AMES SALMONELLA TYPHIMURIUM, Strain/Indicator: TA100, Metabolic Activation: HAMSTER, LIVER, S-9, AROCLOR 1254 (10%), Method: PREINCUBATION",inactive; negative
same,mutagenic call,"Test System: AMES SALMONELLA TYPHIMURIUM, Strain/Indicator: TA100, Metabolic Activation: HAMSTER, LIVER, S-9, AROCLOR 1254 (30%), Method: PREINCUBATION",inactive; negative
same,mutagenic call,"Test System: AMES SALMONELLA TYPHIMURIUM, Strain/Indicator: TA100, Metabolic Activation: NONE, Method: PREINCUBATION",inactive; negative
same,mutagenic call,"Test System: AMES SALMONELLA TYPHIMURIUM, Strain/Indicator: TA100, Metabolic Activation: RAT, LIVER, S-9, AROCLOR 1254 (10%), Method: PREINCUBATION",inactive; negative
same,mutagenic call,"Test System: AMES SALMONELLA TYPHIMURIUM, Strain/Indicator: TA100, Metabolic Activation: RAT, LIVER, S-9, AROCLOR 1254 (30%), Method: PREINCUBATION",inactive; negative
same,mutagenic call,"Test System: AMES SALMONELLA TYPHIMURIUM, Strain/Indicator: TA100, Metabolic Activation: RAT, LIVER, S-9, AROCLOR 1254, Method: PREINCUBATION",inactive; negative
same,mutagenic call,"Test System: AMES SALMONELLA TYPHIMURIUM, Strain/Indicator: TA1535, Metabolic Activation: HAMSTER, LIVER, S-9, AROCLOR 1254 (10%), Method: PREINCUBATION",inactive; negative
same,mutagenic call,"Test System: AMES SALMONELLA TYPHIMURIUM, Strain/Indicator: TA1535, Metabolic Activation: HAMSTER, LIVER, S-9, AROCLOR 1254 (30%), Method: PREINCUBATION",inactive; negative
same,mutagenic call,"Test System: AMES SALMONELLA TYPHIMURIUM, Strain/Indicator: TA1535, Metabolic Activation: NONE, Method: PREINCUBATION",inactive; negative
same,mutagenic call,"Test System: AMES SALMONELLA TYPHIMURIUM, Strain/Indicator: TA1535, Metabolic Activation: RAT, LIVER, S-9, AROCLOR 1254 (10%), Method: PREINCUBATION",inactive; negative
same,mutagenic call,"Test System: AMES SALMONELLA TYPHIMURIUM, Strain/Indicator: TA1535, Metabolic Activation: RAT, LIVER, S-9, AROCLOR 1254 (30%), Method: PREINCUBATION",inactive; negative
same,mutagenic call,"Test System: AMES SALMONELLA TYPHIMURIUM, Strain/Indicator: TA1535, Metabolic Activation: RAT, LIVER, S-9, AROCLOR 1254, Method: PREINCUBATION",inactive; negative
same,mutagenic call,"Test System: AMES SALMONELLA TYPHIMURIUM, Strain/Indicator: TA1537, Metabolic Activation: NONE, Method: PREINCUBATION",inactive; negative
same,mutagenic call,"Test System: AMES SALMONELLA TYPHIMURIUM, Strain/Indicator: TA1537, Metabolic Activation: RAT, LIVER, S-9, AROCLOR 1254, Method: PREINCUBATION",inactive; negative
same,mutagenic call,"Test System: AMES SALMONELLA TYPHIMURIUM, Strain/Indicator: TA1538, Metabolic Activation: NONE, Method: PREINCUBATION",inactive; negative
same,mutagenic call,"Test System: AMES SALMONELLA TYPHIMURIUM, Strain/Indicator: TA1538, Metabolic Activation: RAT, LIVER, S-9, AROCLOR 1254, Method: PREINCUBATION",inactive; negative
same,mutagenic call,"Test System: MOUSE LYMPHOMA, Strain/Indicator: L5178Y (TK+/TK-), Metabolic Activation: NONE, Method: SUSPENSION/PLATE",active; positive
same,mutagenic call,"Test System: MOUSE LYMPHOMA, Strain/Indicator: L5178Y (TK+/TK-), Metabolic Activation: RAT, LIVER, S-9, AROCLOR 1242 AND AROCLOR 1254 (2:1), Method: SUSPENSION/PLATE",inactive; negative
